In brackets after ≈: the same amount, converted by molar mass.
Assays:
in vivo = settings: for AUC(0-inf): AUC(0-inf) of D-Methionine; for concentration at 0 h: 0.00 h (predose); for concentration at 0.5 h: 0.50 h; for Cmax: Cmax of D-Methionine
Experimental: (§1) Twenty-six male Sprague-Dawley rats weighing approximately 200 to 300 g were used for the study. The jugular vein of six animals were cannulated and the rest of the animals were used without any further preparation.
(§2) Dosing was conducted on two occasions. […] The drug was prepared in a suspension formulation in accordance with the present invention. The blood samples (approximately 0.5 mL/sample) were collected from each animal at predose, 15, 30 minutes, 1, 2, 4 and 6 hours postdose into microtainer tubes containing lithium heparin as an anticoagulant. Replacement blood was infused into each animal following each blood draw. […] The drug was prepared in a solution formulation. […] Blood samples were collected from each animal via the orbital sinus at predose, 2, 15, 30 minutes, 1, 2, 4 and 6 hours postdose. Each animal was bled twice. The blood was centrifuged immediately and the resulting plasma in tubes was flash frozen in liquid nitrogen and stored at approximately −70° C. until analysis.
L-Methinione can also be detected under the same HPLC conditions.
Descriptive pharmacokinetic parameters were determined by standard model independent methods (Gibaldi, M. and Perrier, D. Pharmacokinetics, Second Edition, Marcel Dekker, Inc., New York, 1982) based on the mean plasma concentration-time data. The plasma concentrations were rounded to one decimal place before the calculation. Plasma samples with concentrations below the quantifiable limit (BQL) were assigned values of zero for the calculation of mean plasma concentration.

[1] = D-methionine IV 150 mg/kg, PO 150 or 300 mg/kg
Experimental: as §1, §2

[2] = aqueous solutions; cited from earlier work
[3] = humans, cited from earlier work
[4] = system: cisplatin induced hair cell loss; settings: rat model; cited from earlier work
[5] = system: oxidative stress-induced ototoxicity and nephrotoxicity; settings: in vivo; cited from earlier work
[6] = male, Sprague-Dawley, rat, plasma, iv, 150 mg/kg, Mean Plasma Concentrations of D-Methionine, IV 150 mg/kg, solution
[7] = male, Sprague-Dawley, rat, plasma, po, 150 mg/kg, PO 150 mg/kg, solution
[8] = male, Sprague-Dawley, rat, plasma, po, 150 mg/kg, PO 150 mg/kg, suspension
[9] = male, Sprague-Dawley, rat, plasma, po, 150 mg/kg, Mean Plasma Concentrations of D-Methionine, PO 150 mg/kg, solution
[10] = male, Sprague-Dawley, rat, plasma, po, 150 mg/kg, Mean Plasma Concentrations of D-Methionine, PO 150 mg/kg, suspension
[11] = male, Sprague-Dawley, rat, plasma, po, 300 mg/kg, PO 300 mg/kg, suspension
[12] = male, Sprague-Dawley, rat, plasma, po, 300 mg/kg, Mean Plasma Concentrations of D-Methionine, PO 300 mg/kg, suspension

CSCC[C@@H](N)C(=O)O [D-Methionine, D-methionine]
time point at which Cmax was observed (in vivo; PO 150 mg/kg, solution, first collection time point): 30 min | first-pass metabolism suggested by systemic clearance (in vivo; from CL after IV 150 mg/kg): will not be subjected to extensive first-pass metabolism | clearance (in vivo; male, Sprague-Dawley, rat, plasma, iv, 150 mg/kg): 9.28 mL/min/kg | AUC(0-inf) (in vivo; male, Sprague-Dawley, rat, plasma, iv, 150 mg/kg, IV 150 mg/kg, solution): 269 µg·h/mL | concentration at 0 h (in vivo; [6]): 0 ng/mL | concentration at 0.03 h (in vivo; male, Sprague-Dawley, rat, plasma, iv, 150 mg/kg, Mean Plasma Concentrations of D-Methionine, IV 150 mg/kg, solution, 0.03 h): 471 ng/mL | concentration at 0.25 h (in vivo; [6]): 220 ng/mL | concentration at 0.5 h (in vivo; [6]): 106 ng/mL | concentration at 1 h (in vivo; [6]): 64 ng/mL | concentration at 2 h (in vivo; [6]): 32.2 ng/mL | concentration at 4 h (in vivo; [6]): 6.13 ng/mL | concentration at 6 h (in vivo; [6]): 1.45 ng/mL | half-life (in vivo; male, Sprague-Dawley, rat, plasma, iv, 150 mg/kg, T1/2 (terminal half-life) of D-Methionine, IV 150 mg/kg, solution): 54 min | bioavailability (in vivo; male, Sprague-Dawley, rat, plasma, oral, 150 mg/kg): 61.3% | Tmax (in vivo; male, Sprague-Dawley, rat, plasma, po, 150 mg/kg): 30 min | AUC(0-inf) (in vivo; [7]): 165 µg·h/mL | AUC(0-inf) (in vivo; [8]): 120 µg·h/mL | Cmax (in vivo; [7]): 77100 ng/mL | Cmax (in vivo; [8]): 71100 ng/mL | concentration at 0 h (in vivo; [9]): 0 ng/mL | concentration at 0.5 h (in vivo; [9]): 77.1 ng/mL | concentration at 1 h (in vivo; [9]): 54.1 ng/mL | concentration at 2 h (in vivo; [9]): 41.7 ng/mL | concentration at 4 h (in vivo; [9]): 7.67 ng/mL | concentration at 6 h (in vivo; [9]): 3.4 ng/mL | concentration at 12 h (in vivo; male, Sprague-Dawley, rat, plasma, po, 150 mg/kg, Mean Plasma Concentrations of D-Methionine, PO 150 mg/kg, solution, 12.00 h): 0 ng/mL | concentration at 0 h (in vivo; [10]): 0 ng/mL | concentration at 0.25 h (in vivo; [10]): 69.5 ng/mL | concentration at 0.5 h (in vivo; [10]): 71.1 ng/mL | concentration at 1 h (in vivo; [10]): 44.1 ng/mL | concentration at 2 h (in vivo; [10]): 20.9 ng/mL | concentration at 4 h (in vivo; [10]): 4 ng/mL | concentration at 6 h (in vivo; [10]): 1.7 ng/mL | half-life (in vivo; male, Sprague-Dawley, rat, plasma, po, 150 mg/kg, T1/2 (terminal half-life) of D-Methionine, PO 150 mg/kg, solution): 66 min | half-life (in vivo; male, Sprague-Dawley, rat, plasma, po, 150 mg/kg, T1/2 of D-Methionine, PO 150 mg/kg, suspension): 60 min | Tmax (in vivo; male, Sprague-Dawley, rat, plasma, po, 300 mg/kg): 30 min | AUC(0-inf) (in vivo; [11]): 359 µg·h/mL | Cmax (in vivo; [11]): 175000 ng/mL | concentration at 0 h (in vivo; [12]): 0 ng/mL | concentration at 0.25 h (in vivo; [12]): 120 ng/mL | concentration at 0.5 h (in vivo; [12]): 175 ng/mL | concentration at 1 h (in vivo; [12]): 128 ng/mL | concentration at 2 h (in vivo; [12]): 71.4 ng/mL | concentration at 4 h (in vivo; [12]): 22.7 ng/mL | concentration at 6 h (in vivo; [12]): 5.5 ng/mL | half-life (in vivo; male, Sprague-Dawley, rat, plasma, po, 300 mg/kg, T1/2 of D-Methionine, PO 300 mg/kg, suspension): 66 min | terminal half-life (conclusion) (in vivo; rats, IV and PO): approximately one hour | mortality [1]: no mortality occurred | solubility [2]: 50 mg/mL (≈ 335 mM) | plasma levels compared with L-methionine [3]: higher plasma levels than L-methionine | fraction excreted without conversion to the L-isomer ([3]; except in L-methionine deprivation): 60-70% | effect on cisplatin damage to the stria vascularis [4]: markedly reduce cisplatin damage to the stria vascularis | effect on cisplatin induced hair cell loss [4]: prevent cisplatin induced hair cell loss | effect on oxidative stress-induced ototoxicity and nephrotoxicity associated with cisplatin [5]: effectively prevent

— US20060058390A1 (priority 2004, published 2006)
